Reference: paper PMC5653977 (EMBO Molecular Medicine, 2017)
Counter-ions that a name gives are not always drawn. *1 amine or outer side, *2 acyl side, *3 side chain or, on linkers, in order; H or OH if unused. Where a SMILES comes first, the peptide text is derived from it. Bridges are numbered along the chain shown (N, C = ends). Roman numbers before positions name the chains, in order. [ ]: non-standard residue; d: D form. Actinocin(9to1) = Cc1c2oc3c(C)ccc(C(=O)[*:1])c3nc-2c(C(=O)[*:2])c(N)c1=O; NMeV = CN[C@H](C(=O)O)C(C)C; Sar = CNCC(=O)O

System: NRG1-ERBB4 signaling
Assay: Nrg1-ERBB4-PIK3R1 split TEV co-culture compound screen of the NIH Clinical Collection
Type: cell-based, human
Conditions: not given

Row | Structure (SMILES) | Z-SCORE
1 | O=P1(N(CCCl)CCCl)NCCCO1 (stereo not drawn) [Cytoxan, reference compound] | -0.97
2 | CNCC[C@H](Oc1cccc2ccccc12)c1cccs1 [DULOXETINE HCl] | -0.22
3 | CN1C(=O)CN=C(c2ccccc2)c2cc(Cl)ccc21 [Diazepam] | -1.79
4 | CNCC[C@H](Oc1cccc2ccccc12)c1cccs1 [Duloxetine] | -0.82

Same assay, conditions: NIH Clinical Collection NCC-003 raw data; compounds ranked by Z-score; 'flagged' given instead of a Z-score

Row | Structure (SMILES) | Z-SCORE
5 | CC1=C(C(=O)O)N2C(=O)[C@@H](NC(=O)[C@H](N)c3ccccc3)[C@H]2SC1 [Cephalexin monohydrate] | -1.51
6 | Cc1c2oc3c(C)ccc(C(=O)N[C@@H]4C(=O)N[C@H](C(C)C)C(=O)N5CCC[C@H]5C(=O)N(C)CC(=O)N(C)[C@@H](C(C)C)C(=O)O[C@@H]4C)c3nc-2c(C(=O)N[C@@H]2C(=O)N[C@H](C(C)C)C(=O)N3CCC[C@H]3C(=O)N(C)CC(=O)N(C)[C@@H](C(C)C)C(=O)O[C@@H]2C)c(N)c1=O [DACTINOMYCIN] (I: T[dV]P[Sar][NMeV] / II: T[dV]P[Sar][NMeV]; ester I:1-I:C, II:1-II:C; linker I:N-II:N via Actinocin(9to1)) | flagged
7 | CC(=O)O[C@@]12CO[C@@H]1C[C@H](O)[C@@]1(C)C(=O)[C@H](O)C3=C(C)[C@@H](OC(=O)[C@H](O)[C@@H](NC(=O)OC(C)(C)C)c4ccccc4)C[C@@](O)([C@@H](OC(=O)c4ccccc4)[C@H]21)C3(C)C [DOCETAXEL] | -1.13
8 | COc1cccc2c1C(=O)c1c(O)c3c(c(O)c1C2=O)C[C@@](O)(C(=O)CO)C[C@@H]3O[C@H]1C[C@H](N)[C@H](O)[C@H](C)O1 [DOXORUBICIN HYDROCHLORIDE] | flagged

Same assay, conditions: compound screen of the NIH Clinical Collection, sheet raw data NCC-003; compounds ranked by Z-score

Row | Structure (SMILES) | Z-SCORE
9 | CN(C)CCC(c1ccc(Cl)cc1)c1ccccn1 (stereo not drawn) [Chlorpheniramine] | -0.07
10 | CN(C)CCCSc1ccccc1NC(=O)/C=C/c1ccccc1 [Cinanserin] | -0.77
11 | COc1cc(N)c(Cl)cc1C(=O)NC1CCN(CCCOc2ccc(F)cc2)CC1OC (stereo not drawn) [Cisapride] | -0.15
12 | CN(C)CCCC1(c2ccc(F)cc2)OCc2cc(C#N)ccc21 (stereo not drawn) [Citalopram hydrobromide] | -0.45
13 | NC(=NCc1ccc(Cl)cc1)SCCCc1cnc[nH]1 [Clobenpropit] | -0.9
14 | CN1CCC(=C2c3ccccc3C=Cc3ccccc32)CC1 [Cyproheptadine hydrochloride] | 0.2
15 | N[C@@H]1CON=C1O [D-CYCLOSERINE, reference compound] | 2.86
16 | C[C@H](CCC(=O)O)[C@H]1CC[C@H]2[C@@H]3C(=O)C[C@@H]4CC(=O)CC[C@]4(C)[C@H]3CC(=O)[C@]12C [DEHYDROCHOLIC ACID] | -0.51
17 | C[C@]12CC[C@H](O)CC1=CC[C@@H]1[C@@H]2CC[C@]2(C)C(=O)CC[C@@H]12 [DEHYDROEPIANDROSTERONE] | 0.4
18 | C[C@@H]1C[C@H]2[C@@H]3CCC4=CC(=O)C=C[C@]4(C)[C@@]3(F)[C@@H](O)C[C@]2(C)[C@H]1C(=O)CO [DESOXIMETASONE] | -0.5
19 | CN(C)CC[C@@H](c1ccc(Br)cc1)c1ccccn1 [DEXBROMPHENIRAMINE MALEATE] | -0.74
20 | CN(C)CC[C@@H](c1ccc(Cl)cc1)c1ccccn1 [DEXCHLORPHENIRAMINE MALEATE] | -0.67
21 | CC1=NS(=O)(=O)c2cc(Cl)ccc2N1 [DIAZOXIDE] | 2.34
22 | O=C(O)C(Cl)Cl [DICHLOROACETIC ACID] | 1.9
23 | CN(C)CCOC(c1ccccc1)c1ccccc1 [DIPHENHYDRAMINE HYDROCHLORIDE] | 1.01
24 | CCOC(=O)C1(c2ccccc2)CCN(CCC(C#N)(c2ccccc2)c2ccccc2)CC1 [DIPHENOXYLATE] | -0.45
25 | CN(CCOc1ccc(NS(C)(=O)=O)cc1)CCc1ccc(NS(C)(=O)=O)cc1 [DOFETILIDE] | 0
26 | CS(=O)(=O)O.O=C(O[C@H]1C[C@H]2CC3C[C@@H](C1)N2CC3=O)c1c[nH]c2ccccc12 [DOLASETRON MESYLATE] | 0.23
27 | CCN1CC(CCN2CCOCC2)C(c2ccccc2)(c2ccccc2)C1=O.Cl (stereo not drawn) [DOXAPRAM HYDROCHLORIDE] | -0.46
28 | O=C(CCCN1CC=C(n2c(=O)[nH]c3ccccc32)CC1)c1ccc(F)cc1 [DROPERIDOL] | -0.96
29 | COc1cc2c(cc1OC)C(=O)C(CC1CCN(Cc3ccccc3)CC1)C2 (stereo not drawn) [Donepezil] | 0
30 | CN(C)CCC=C1c2ccccc2COc2ccccc21 [Doxepin] | 2.16
31 | CN(C)CCOC(C)(c1ccccc1)c1ccccn1.O=C(O)CCC(=O)O (stereo not drawn) [Doxylamine succinate salt] | 0.36
32 | O=c1c2ccccc2[se]n1-c1ccccc1 [EBSELEN] | -0.25

Same assay, conditions: compounds at 10 μM, 24 h; PC12 split TEV assay cells co-cultured with Nrg1-expressing PC12 cells; analysed with cellHTS2

Row | Structure (SMILES) | Z-SCORE
33 | O=C(O)COCCN1CCN(C(c2ccccc2)c2ccc(Cl)cc2)CC1 (stereo not drawn) [Cetirizine, reference compound] | 0.89
34 | O=C(N[C@H](CO)[C@H](O)c1ccc([N+](=O)[O-])cc1)C(Cl)Cl [Chloramphenicol, reference compound] | 0.74
35 | NS(=O)(=O)c1cc2c(cc1Cl)N=CNS2(=O)=O [Chlorothiazide, reference compound] | 0.42
36 | Oc1c(Cl)cc(Cl)c2cccnc12 [Chloroxine, reference compound] | flagged
37 | CCCNC(=O)NS(=O)(=O)c1ccc(Cl)cc1 [Chlorpropamide, reference compound] | -0.07
38 | NS(=O)(=O)c1cc(C2(O)NC(=O)c3ccccc32)ccc1Cl (stereo not drawn) [Chlorthalidone, reference compound] | 0.87
39 | CN/C(=N/CCSCc1nc[nH]c1C)NC#N [Cimetidine, reference compound] | -0.45
40 | CN(C)CCCC1(c2ccc(F)cc2)OCc2cc(C#N)ccc21 (stereo not drawn) [Citalopram, reference compound] | -1.5
41 | CCN(CC)CCOc1ccc(C(=C(Cl)c2ccccc2)c2ccccc2)cc1 [Clomid, reference compound] | -1.33
42 | CN1CCN(C2=Nc3cc(Cl)ccc3Nc3ccccc32)CC1 [Clozapine, reference compound] | -0.31
43 | CN1[C@@H]2CC[C@H]1C[C@@H](OC(c1ccccc1)c1ccccc1)C2.CS(=O)(=O)O [Cogentin Mesylate, reference compound] | -2.36
44 | O=C(O)c1cc(=O)c2c(OCC(O)COc3cccc4oc(C(=O)O)cc(=O)c34)cccc2o1 [Cromolyn Sodium, reference compound] | 1.88
45 | N[C@@H]1CON=C1O [D-CYCLOSERINE, reference compound] | -0.66
46 | C#C[C@]1(O)CC[C@H]2[C@@H]3CCC4=Cc5oncc5C[C@]4(C)[C@H]3CC[C@@]21C [DANAZOL, reference compound] | -0.3
47 | COc1cccc2c1C(=O)c1c(O)c3c(c(O)c1C2=O)C[C@@](O)(C(C)=O)C[C@@H]3O[C@H]1C[C@H](N)[C@H](O)[C@H](C)O1 [DAUNORUBICIN HYDROCHLORIDE, reference compound] | flagged
48 | CC(=O)OCC(=O)[C@@]1(O)CC[C@H]2[C@@H]3C[C@H](C)C4=CC(=O)C=C[C@]4(C)[C@H]3[C@@H](O)C[C@@]21C [DEPO-MEDROL, reference compound] | 0.97
49 | C#CCN(C)[C@H](C)Cc1ccccc1.Cl [DEPRENALIN, reference compound] | 0.31

Row | Structure (SMILES) | Z-SCORE
50 | Cc1onc(-c2c(Cl)cccc2Cl)c1C(=O)N[C@@H]1C(=O)N2[C@@H]1SC(C)(C)[C@@H]2C(=O)O [DICLOXACILLIN SODIUM, reference compound] | 0.28
51 | C[C@H]1O[C@@H](O[C@H]2[C@@H](O)C[C@H](O[C@H]3[C@@H](O)C[C@H](O[C@H]4CC[C@@]5(C)[C@H](CC[C@@H]6[C@@H]5C[C@@H](O)[C@]5(C)[C@@H](C7=CC(=O)OC7)CC[C@]65O)C4)O[C@@H]3C)O[C@@H]2C)C[C@H](O)[C@@H]1O [DIGOXIN, reference compound] | -1.73
52 | OCCN(CCO)c1nc(N2CCCCC2)c2nc(N(CCO)CCO)nc(N3CCCCC3)c2n1 [DIPYRIDAMOLE, reference compound] | -1.46
53 | CN(C)CCC=C1c2ccccc2COc2ccccc21 [DOXEPIN HYDROCHLORIDE, reference compound] | 1.31
54 | C[C@H]1c2cccc(O)c2C(=O)C2=C(O)[C@]3(O)C(=O)C(C(N)=O)=C(O)[C@@H](N(C)C)[C@@H]3[C@@H](O)[C@@H]21 [DOXYCYCLINE, reference compound] | -0.93
55 | O=C1CN(/N=C/c2ccc(-c3ccc([N+](=O)[O-])cc3)o2)C(=O)[N-]1.[Na+] [Dantrolene sodium salt, reference compound] | 0.78
56 | Nc1ccc(S(=O)(=O)c2ccc(N)cc2)cc1 [Dapsone, reference compound] | -0.6
57 | CN(C)[C@@H]1C(O)=C(C(N)=O)C(=O)[C@@]2(O)C(O)=C3C(=O)c4c(O)ccc(Cl)c4[C@@H](O)[C@H]3C[C@@H]12 [Demeclocycline, reference compound] | 0.1
58 | C[C@@H]1C[C@H]2[C@@H]3CCC4=CC(=O)C=C[C@]4(C)[C@@]3(F)[C@@H](O)C[C@]2(C)[C@@]1(O)C(=O)CO [Dexamethasone, reference compound] | 0.88
59 | CC(COc1ccccc1)N(CCCl)Cc1ccccc1 (stereo not drawn) [Dibenzyline, reference compound] | -1.18
60 | CCN(CC)CCOC(=O)C1(C2CCCCC2)CCCCC1 [Dicyclomine hydrochloride, reference compound] | -2.03
61 | O=C(O)c1cc(-c2ccc(F)cc2F)ccc1O [Diflunisal, reference compound] | -0.6
62 | O=C1NC(=O)C(c2ccccc2)(c2ccccc2)N1 [Dilantin, reference compound] | 0.95
63 | Cc1ccccc1C(OCCN(C)C)c1ccccc1 (stereo not drawn) [Disipal, reference compound] | 0.42
64 | COc1cc2nc(N3CCN(C(=O)C4COc5ccccc5O4)CC3)nc(N)c2cc1OC (stereo not drawn) [Doxazosin, reference compound] | 0.51
65 | Cc1cccc(CN2CCN(C(c3ccccc3)c3ccc(Cl)cc3)CC2)c1.Cl (stereo not drawn) [Duremesin, reference compound] | -0.76
66 | CC(COc1ccccc1)NC(C)C(O)c1ccc(O)cc1 (stereo not drawn) [Duvadilan, reference compound] | -1.36
